Measurements reported in the NIST ThermoML archive (doi:10.1021/je050141m).

Conditions: Liquid, Ebulliometric method (Recirculating still)

CCCCCCO [hexan-1-ol]
Conditions | vapor or sublimation pressure [kPa]
391.07 K | 25
395.62 K | 30
399.65 K | 35
403.15 K | 40
406.36 K | 45
409.25 K | 50
411.92 K | 55
414.44 K | 60
416.75 K | 65
418.98 K | 70
421.05 K | 75
423.01 K | 80
424.87 K | 85
426.69 K | 90

CCCCCCOC(C)=O [hexyl ethanoate]
Conditions | vapor or sublimation pressure [kPa]
397.97 K | 25
403.36 K | 30
408.02 K | 35
412.14 K | 40
416.02 K | 45
419.47 K | 50
422.59 K | 55
425.57 K | 60
428.26 K | 65
430.93 K | 70
433.38 K | 75
435.68 K | 80
437.92 K | 85
439.98 K | 90
